Assay results: PubChem BioAssay (NCI)
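Grown in 96-well plates, cells were treated for 48 hours with each compound at five concentrations. Insufficient inhibition: endpoint recorded as highest concentration tested. Here, GI50 denotes the concentration required for 50% inhibition of growth. TGI denotes the concentration required for complete inhibition of growth.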

Legend:
Experiment in all cases: NCI tumour cell line growth inhibition, 48 h
NCI-H226 lung = test system: NCI-H226 lung
HCT-15 colon = test system: HCT-15 colon
MOLT-4 leukemia = test system: MOLT-4 leukemia
HT29 colon = test system: HT29 colon
OVCAR-5 ovarian = test system: OVCAR-5 ovarian
RXF 393 renal = test system: RXF 393 renal
MDA-MB-468 breast = test system: MDA-MB-468 breast
RPMI-8226 leukemia = test system: RPMI-8226 leukemia
SR leukemia = test system: SR leukemia
KM12 colon = test system: KM12 colon
DU-145 prostate = test system: DU-145 prostate
SK-MEL-2 melanoma = test system: SK-MEL-2 melanoma
SK-OV-3 ovarian = test system: SK-OV-3 ovarian
NCI-H460 lung = test system: NCI-H460 lung
NCI-H522 lung = test system: NCI-H522 lung
M14 melanoma = test system: M14 melanoma
OVCAR-3 ovarian = test system: OVCAR-3 ovarian
CCRF-CEM leukemia = test system: CCRF-CEM leukemia
A549 NSCLC = test system: A549 NSCLC
HCT-116 colon = test system: HCT-116 colon
SF-295 CNS = test system: SF-295 CNS
HOP-62 NSCLC = test system: HOP-62 NSCLC
PC-3 prostate = test system: PC-3 prostate
K-562 leukemia = test system: K-562 leukemia
NCI/ADR-RES ovarian = test system: NCI/ADR-RES ovarian
U251 CNS = test system: U251 CNS
786-0 renal = test system: 786-0 renal
ACHN renal = test system: ACHN renal
TK-10 renal = test system: TK-10 renal
HOP-92 NSCLC = test system: HOP-92 NSCLC
BT-549 breast = test system: BT-549 breast
SF-268 CNS = test system: SF-268 CNS
COLO 205 colon = test system: COLO 205 colon
HCC-2998 colon = test system: HCC-2998 colon
OVCAR-8 ovarian = test system: OVCAR-8 ovarian
SK-MEL-5 melanoma = test system: SK-MEL-5 melanoma
OVCAR-4 ovarian = test system: OVCAR-4 ovarian
HL-60(TB) leukemia = test system: HL-60(TB) leukemia
SNB-19 CNS = test system: SNB-19 CNS
T-47D breast = test system: T-47D breast
SK-MEL-28 melanoma = test system: SK-MEL-28 melanoma
UACC-257 melanoma = test system: UACC-257 melanoma
SN12C renal = test system: SN12C renal
CAKI-1 renal = test system: CAKI-1 renal
MALME-3M melanoma = test system: MALME-3M melanoma
UACC-62 melanoma = test system: UACC-62 melanoma
EKVX NSCLC = test system: EKVX NSCLC
SF-539 CNS = test system: SF-539 CNS
UO-31 renal = test system: UO-31 renal
MDA-MB-435 = test system: MDA-MB-435
NCI-H23 lung = test system: NCI-H23 lung
A498 renal = test system: A498 renal
IGROV1 ovarian = test system: IGROV1 ovarian
MCF7 breast = test system: MCF7 breast
SNB-75 CNS = test system: SNB-75 CNS

In the case of `O=C(Cn1c(/C=C/c2ccccc2)nc2ccccc2c1=O)Nc1ccc(Cl)cc1`, the GI50 (NCI-H226 lung) is reported as 23.9 µM, the TGI (NCI-H226 lung) is reported as > 100 µM and the GI50 (HCT-15 colon) is reported as > 100 µM. The TGI (HCT-15 colon) was > 100 µM, the GI50 (MOLT-4 leukemia) was > 100 µM and the TGI (MOLT-4 leukemia) was > 100 µM. For the same molecule, the GI50 (HT29 colon) was > 100 µM, the TGI (HT29 colon) was > 100 µM and the GI50 (OVCAR-5 ovarian) was > 100 µM. The TGI (OVCAR-5 ovarian) was > 100 µM, the GI50 (RXF 393 renal) was 14.4 µM and the TGI (RXF 393 renal) was 35.3 µM. The GI50 (MDA-MB-468 breast) was 29.2 µM, the TGI (MDA-MB-468 breast) was > 100 µM and the GI50 (RPMI-8226 leukemia) was > 100 µM. The TGI (RPMI-8226 leukemia) was > 100 µM, the GI50 (SR leukemia) was > 100 µM and the TGI (SR leukemia) was > 100 µM. For the same molecule, the GI50 (KM12 colon) was > 100 µM, the TGI (KM12 colon) was > 100 µM and the GI50 (DU-145 prostate) was > 100 µM. The TGI (DU-145 prostate) was > 100 µM, the GI50 (SK-MEL-2 melanoma) was > 100 µM and the TGI (SK-MEL-2 melanoma) was > 100 µM. It also gave a GI50 (SK-OV-3 ovarian) of 24.8 µM, a TGI (SK-OV-3 ovarian) of 57.4 µM and a GI50 (NCI-H460 lung) of 39.6 µM. For the same molecule, the TGI (NCI-H460 lung) was > 100 µM, the GI50 (NCI-H522 lung) was 83.4 µM and the TGI (NCI-H522 lung) was > 100 µM. For the same molecule, the GI50 (M14 melanoma) was > 100 µM, the TGI (M14 melanoma) was > 100 µM and the GI50 (OVCAR-3 ovarian) was 60.6 µM. For the same molecule, the TGI (OVCAR-3 ovarian) was > 100 µM, the GI50 (CCRF-CEM leukemia) was > 100 µM and the TGI (CCRF-CEM leukemia) was > 100 µM. The GI50 (A549 NSCLC) was 87.2 µM, the TGI (A549 NSCLC) was > 100 µM and the GI50 (HCT-116 colon) was 46 µM. The TGI (HCT-116 colon) was > 100 µM, the GI50 (SF-295 CNS) was 26.8 µM and the TGI (SF-295 CNS) was > 100 µM. For the same molecule, the GI50 (HOP-62 NSCLC) was 24.7 µM, the TGI (HOP-62 NSCLC) was 80.1 µM and the GI50 (PC-3 prostate) was > 100 µM. For the same molecule, the TGI (PC-3 prostate) was > 100 µM, the GI50 (K-562 leukemia) was > 100 µM and the TGI (K-562 leukemia) was > 100 µM. For the same molecule, the GI50 (NCI/ADR-RES ovarian) was 71.4 µM, the TGI (NCI/ADR-RES ovarian) was > 100 µM and the GI50 (U251 CNS) was 13.9 µM. For the same molecule, the TGI (U251 CNS) was > 100 µM, the GI50 (786-0 renal) was 18.4 µM and the TGI (786-0 renal) was 64.8 µM. The GI50 (ACHN renal) was 16 µM, the TGI (ACHN renal) was 49.6 µM and the GI50 (TK-10 renal) was 21.4 µM. The TGI (TK-10 renal) was 46 µM, the GI50 (HOP-92 NSCLC) was 11.2 µM and the TGI (HOP-92 NSCLC) was 32.2 µM. For the same molecule, the GI50 (BT-549 breast) was > 100 µM, the TGI (BT-549 breast) was > 100 µM and the GI50 (SF-268 CNS) was > 100 µM. For the same molecule, the TGI (SF-268 CNS) was > 100 µM, the GI50 (COLO 205 colon) was > 100 µM and the TGI (COLO 205 colon) was > 100 µM. The GI50 (HCC-2998 colon) was > 100 µM, the TGI (HCC-2998 colon) was > 100 µM and the GI50 (OVCAR-8 ovarian) was > 100 µM. The TGI (OVCAR-8 ovarian) was > 100 µM, the GI50 (SK-MEL-5 melanoma) was > 100 µM and the TGI (SK-MEL-5 melanoma) was > 100 µM. For the same molecule, the GI50 (OVCAR-4 ovarian) was 9.54 µM, the TGI (OVCAR-4 ovarian) was > 100 µM and the GI50 (HL-60(TB) leukemia) was > 100 µM. The TGI (HL-60(TB) leukemia) was > 100 µM, the GI50 (SNB-19 CNS) was 32.7 µM and the TGI (SNB-19 CNS) was > 100 µM. The GI50 (T-47D breast) was 15.8 µM, the TGI (T-47D breast) was 47.5 µM and the GI50 (SK-MEL-28 melanoma) was > 100 µM. For the same molecule, the TGI (SK-MEL-28 melanoma) was > 100 µM, the GI50 (UACC-257 melanoma) was > 100 µM and the TGI (UACC-257 melanoma) was > 100 µM. The GI50 (SN12C renal) was 16.7 µM, the TGI (SN12C renal) was > 100 µM and the GI50 (CAKI-1 renal) was 69 µM. For the same molecule, the TGI (CAKI-1 renal) was > 100 µM, the GI50 (MALME-3M melanoma) was 71.3 µM and the TGI (MALME-3M melanoma) was > 100 µM. The GI50 (UACC-62 melanoma) was > 100 µM, the TGI (UACC-62 melanoma) was > 100 µM and the GI50 (EKVX NSCLC) was > 100 µM. For the same molecule, the TGI (EKVX NSCLC) was > 100 µM, the GI50 (SF-539 CNS) was 30.9 µM and the TGI (SF-539 CNS) was > 100 µM. For the same molecule, the GI50 (UO-31 renal) was 21.3 µM, the TGI (UO-31 renal) was 64.8 µM and the GI50 (MDA-MB-435) was > 100 µM. The TGI (MDA-MB-435) was > 100 µM, the GI50 (NCI-H23 lung) was 34.4 µM and the TGI (NCI-H23 lung) was > 100 µM. For the same molecule, the GI50 (A498 renal) was 22.2 µM, the TGI (A498 renal) was 40.9 µM and the GI50 (IGROV1 ovarian) was 70.1 µM. The TGI (IGROV1 ovarian) was > 100 µM, the GI50 (MCF7 breast) was > 100 µM and the TGI (MCF7 breast) was > 100 µM. The GI50 (SNB-75 CNS) was 19.4 µM and the TGI (SNB-75 CNS) was 53.8 µM.
